# Literature values in paper PMC3880013, “Toward an Understanding of Agonist Binding to Human Orexin-1 and Orexin-2 Receptors with G-Protein-Coupled Receptor Modeling and Site-Directed Mutagenesis” (Biochemistry, 2013).
# Read-outs that look alike come from different tables or passages of the source. Marks after values point to notes of the source that are not given here. Where no end group is shown, it is not given here.
# What was measured:
# hOX2 F346A = tested on: hOX2 F346A; set-up: method as in earlier work; settings: hOX2 F346A (7.35) relative to wild type, [Ca2+]i response, ref 37 Malherbe et al., cited from earlier work
# hOX2 Y232A = tested on: hOX2 Y232A; set-up: method as in 2 sources, one per row (each row's own in cited_ref): ref 37 Malherbe et al. ||| ref 37 = [37]; PMID 20404073; doi:10.1124/mol.110.064584; Malherbe P.; Roche O.; Marcuz A.; Kratzeisen C.; Wettstein J. G.; Bissantz C. ( 2010 ) Mapping the Binding Pocket of Dual Antagonist Almorexant to Human Orexin 1 and Orexin 2 Receptors: Compariso; settings: cited from earlier work; for ratio EC50(mut)/EC50(WT): hOX2 Y232A (5.47) relative to wild type, [Ca2+]i response, ref 37 Malherbe et al.
# hOX2 D211A = tested on: hOX2 D211A; set-up: method as in earlier work; settings: hOX2 D211A (45.51) relative to wild type, [Ca2+]i response, ref 37 Malherbe et al., cited from earlier work
# hOX1 V130A = hOX1 V130A (3.36) relative to wild type, [Ca2+]i response, ref 37 Malherbe et al., cited from earlier work
# hOX2 Q134A = tested on: hOX2 Q134A; set-up: method as in earlier work; settings: hOX2 Q134A (3.32) relative to wild type; [Ca2+]i response; ref 37 Malherbe et al.; cited from earlier work
# hOX2 H350A = settings: cited from earlier work; for ratio EC50(mut)/EC50(WT): hOX2 H350A (7.39) relative to wild type, [Ca2+]i response, ref 37 Malherbe et al.
# From the text: We observed that in OX1, H^7.39 interacts with residues L16 and L20 of helix 1 of OxA (see Figure 6A). […] On the other hand, in OX2, H^7.39 interacts with L20 and not with L16 (see Figure 6B), and ...
# hOX2 S139A = hOX2 S139A (3.37) relative to wild type; [Ca2+]i response; ref 37 Malherbe et al.; cited from earlier work
# From the text: (§1) Table 1 Comparison of the Effects of Different Mutations in hOX1 and hOX2 on the Binding Potencies of Orexin-A and Orexin-B ^a | column: hOX2 / ratio ^b of Orexin-A
# hOX2 Y317F = hOX2 Y317F (6.48) relative to wild type; [Ca2+]i response; ref 37 Malherbe et al.; cited from earlier work
# From the text: as §1
# hOX2 T135A = hOX2 T135A (3.33) relative to wild type; [Ca2+]i response; ref 37 Malherbe et al.; cited from earlier work
# From the text: as §1
# hOX2 F228A = hOX2 F228A (5.43) relative to wild type; [Ca2+]i response; ref 37 Malherbe et al.; cited from earlier work
# From the text: as §1
# hOX2 I320A = hOX2 I320A (6.51) relative to wild type; [Ca2+]i response; ref 37 Malherbe et al.; cited from earlier work
# From the text: as §1
# hOX2 Y354A = hOX2 Y354A (7.43) relative to wild type; [Ca2+]i response; ref 37 Malherbe et al.; cited from earlier work
# From the text: as §1
# hOX2 V353A = hOX2 V353A (7.42) relative to wild type; [Ca2+]i response; ref 37 Malherbe et al.; cited from earlier work
# From the text: as §1
# hOX2 V138A = hOX2 V138A (3.36) relative to wild type; [Ca2+]i response; ref 37 Malherbe et al.; cited from earlier work
# From the text: as §1
# hOX2 W214A = tested on: hOX2 W214A; set-up: method as in earlier work; settings: hOX2 W214A (45.54) relative to wild type, [Ca2+]i response, ref 37 Malherbe et al., cited from earlier work
# hOX1 W206A = settings: cited from earlier work; for ratio EC50(mut)/EC50(WT): hOX1 W206A (45.54) relative to wild type, [Ca2+]i response, ref 37 Malherbe et al.
# From the text: (§2) Other mutations had no major effect on efficacy.
# hOX1 D203A = hOX1 D203A (45.51) relative to wild type, [Ca2+]i response, ref 37 Malherbe et al., cited from earlier work
# From the text: as §2
# hOX1 Y215A = hOX1 Y215A (5.38) relative to wild type, [Ca2+]i response, ref 37 Malherbe et al., cited from earlier work
# From the text: as §2
# hOX1 Y311A = settings: cited from earlier work
# From the text: as §2
# hOX1 Y224A = hOX1 Y224A (5.47) relative to wild type, [Ca2+]i response, ref 37 Malherbe et al., cited from earlier work
# From the text: as §2
# hOX2 Y223A = tested on: hOX2 Y223A; set-up: method as in earlier work; settings: hOX2 Y223A (5.38) relative to wild type, [Ca2+]i response, ref 37 Malherbe et al., cited from earlier work
substance,measurement,setting,value
"Orexin-A (QPLPDCCRQKTCSCRLYELLHGAGNHAAGILTL; ends and bridges not checked; cysteine pairing not given here; UniProt O43612 34-66, looked up) [hypothalamic neuropeptide, 33 amino acids, two intramolecular disulfide bonds C6-C12 and C7-C14; natural OX1/OX2 agonist]",ratio EC50(mut)/EC50(WT),hOX2 F346A,54.5 ^c fold
same,ratio EC50(mut)/EC50(WT),hOX2 F346A; listed as OxA,54.5 fold
same,ratio EC50(mut)/EC50(WT),hOX2 Y232A,28.4 ^c fold
same,ratio EC50(mut)/EC50(WT),hOX2 Y232A; listed as OxA,28.4 fold
same,Emax (decreased),hOX2 Y232A; hOX2 Y232A compared with WT,44.9%
same,ratio EC50(mut)/EC50(WT),hOX2 D211A,416.1 ^c fold
same,ratio EC50(mut)/EC50(WT),hOX2 D211A; listed as OxA,416.1 fold
same,ratio EC50(mut)/EC50(WT),hOX1 V130A,30.6 ^c fold
same,ratio EC50(mut)/EC50(WT),hOX1 V130A; listed as OxA,30.6 fold
same,ratio EC50(mut)/EC50(WT),hOX2 Q134A,22.3 fold
same,decrease in Emax,hOX2 H350A; OX2 H7.39 (H350) mutated to alanine,63.0%
same,ratio EC50(mut)/EC50(WT),hOX2 H350A,49.5 ^c fold
same,ratio EC50(mut)/EC50(WT),hOX2 H350A; listed as OxA,49.5 fold
same,ratio EC50(mut)/EC50(WT),hOX2 S139A,2.5 ^c fold
same,ratio EC50(mut)/EC50(WT),hOX2 Y317F,1.3 ^c fold
same,ratio EC50(mut)/EC50(WT),hOX2 T135A,0.8 ^c fold
same,ratio EC50(mut)/EC50(WT),hOX2 F228A,3.0 ^c fold
same,ratio EC50(mut)/EC50(WT),hOX2 I320A,0.9 ^c fold
same,ratio EC50(mut)/EC50(WT),hOX2 Y354A,3.7 ^c fold
same,ratio EC50(mut)/EC50(WT),hOX2 V353A,1.9 ^c fold
same,ratio EC50(mut)/EC50(WT),hOX2 V138A,4.4 ^c fold
same,ratio EC50(mut)/EC50(WT),hOX2 W214A,62.4 ^c fold
same,ratio EC50(mut)/EC50(WT),hOX2 W214A; listed as OxA,62.4 fold
same,ratio EC50(mut)/EC50(WT),hOX1 W206A,417.8 ^c fold
same,ratio EC50(mut)/EC50(WT),hOX1 W206A; listed as OxA,417.8 fold
same,decrease in the maximal efficacy (Emax),hOX1 W206A; hOX1 W206A compared with WT,45.0%
same,ratio EC50(mut)/EC50(WT),hOX1 D203A,408.2 ^c fold
same,ratio EC50(mut)/EC50(WT),hOX1 D203A; listed as OxA,408.2 fold
same,ratio EC50(mut)/EC50(WT),hOX1 Y215A,407.8 ^c fold
same,ratio EC50(mut)/EC50(WT),hOX1 Y215A; listed as OxA,407.8 fold
same,ratio EC50(mut)/EC50(WT),"hOX1 Y311A; hOX1 Y311A (6.48) relative to wild type, [Ca2+]i response, ref 37 Malherbe et al.",163.9 fold
same,decrease in the maximal efficacy (Emax),hOX1 Y311A; hOX1 Y311A compared with WT,53.4%
same,ratio EC50(mut)/EC50(WT),hOX1 Y224A,84.4 ^c fold
same,ratio EC50(mut)/EC50(WT),hOX1 Y224A; listed as OxA,84.4 fold
same,ratio EC50(mut)/EC50(WT),hOX2 Y223A,183.9 ^c fold
same,ratio EC50(mut)/EC50(WT),hOX2 Y223A; listed as OxA,183.9 fold
